Like-named read-outs stand apart in the source and are kept apart here.
Experiments:
PCJ (Prostate) = assay: SRB assay, PCJ; type: cell-based; conditions: Homo sapiens, 48 h; for CC50: read-out: LC50; for GI50 / IC (TGI): PCJ, SRB
Description: (§1) SRB assays were performed according to standard National Cancer Institute Guidelines. Briefly, human tumor cells from different cancer panels were seeded into 96 well plates in 100 μL (plating densities ranging from 5-40,000 cells/well depending on the doubling time of individual cell lines) in serum-containing media for twenty-four hours prior to the addition of the compounds to be assayed. After 24 hours, one plate of each cell line was fixed in situ with trichloroacetic acid (TCA). The fixed slides were used to determine the cell population for each cell line at the time of drug addition (Tz). Each compound to be tested was solubilized in DMSO and the desired concentration was then added to the medium and diluted serially 1:10 to provide a total of five or ten drug concentrations plus control (in a final volume of 200 μL). The starting dose before any dilution was 100 uM for all compounds.
(§2) Following drug addition, each culture was incubated for forty-eight hours. The assay was terminated with the addition of cold TCA. The supernatant was discarded, and the plates were washed with tap water and air dried. Sulforhodamine B (SRB) solution was then added to each well. After staining, the bound stain was solubilized and the absorbance was read on an automated plate reader at a wavelength of 515 nm.
(§3) Using the absorbance measurements [time zero, (Tz), control growth, (C), and test growth in the presence of drug at the ten concentration levels (Ti)], the percentage growth was calculated at each of the drug concentrations levels. Percentage growth inhibition was calculated as:
(§4) [(Ti−Tz)/(C−Tz)]×100 for concentrations for which Ti>/=Tz
(§5) [(Ti−Tz)/Tz]×100 for concentrations for which Ti<Tz.
(§6) Three dose response parameters were calculated for each experimental agent. Growth inhibition of 50% (GI50) was calculated from [(Ti−Tz)/(C−Tz)]×100=50, which was the drug concentration resulting in a 50% reduction in the net protein increase (as measured by SRB staining) in control cells during the drug. The drug concentration resulting in total growth inhibition (TGI) was calculated from Ti=Tz. The LC50 (concentration of drug resulting in a 50% reduction in the measured protein at the end of the drug treatment as compared to that at the beginning) indicating a net loss of cells following treatment was calculated from [(Ti−Tz)/Tz]×100=−50.
(§7) Values were calculated for each of these three parameters when the level of activity was reached; however, if the effect was not reached or was exceeded, the value for that parameter was expressed as greater or less than the maximum or minimum concentration tested.
(§8) Table 4 summarizes results characterizing the effects of compound Nos. 120, 12, 61, 1, and 56 on GI50, which measures the cell growth inhibitory power of the compound, TGI, which measures cytostatic effect (TGI) and LC50, which signifies cytotoxic effect. Each of these parameters in Table 4 was calculated in a sulforhodamine B (SRB) assay, which provides a colorimetric measure of a compound's anti-cancer activity. SRB assays were performed with compounds of the invention in 22 different cell lines (shaded in light gray in Table 4), which represent nine different tumor panels (lung, melanoma, ovary, prostate, CNS, breast, pancreas colon and renal). Ouabain and digoxin were used as controls. Paclitaxel was added as a non-Na^+K^+-ATPase inhibitor control.

OVCAR5 (Ovary) = assay: SRB assay, OVCAR5; type: cell-based, human
Description: as §1, §2, §3, §4, §5, §6, §7, §8

CAKJ1 (Renal) = assay: SRB assay, CAKJ1; type: cell-based, human; conditions: 48 h; for TGI / GI50: CAKJ1, SRB; for CC50 / GI50: Homo sapiens; for CC50: read-out: LC50
Description: as §1, §2, §3, §4, §5, §6, §7, §8

A549 (Lung) = assay: SRB assay, A549; type: cell-based, human; conditions: for TGI / GI50: A549, SRB, 48 h; for CC50 / GI50: Homo sapiens; for CC50: A549, 48 h, read-out: LC50
Description: as §1, §2, §3, §4, §5, §6, §7, §8

ERVK (Lung) = assay: SRB assay, ERVK; type: cell-based, human; conditions: 48 h
Description: as §1, §2, §3, §4, §5, §6, §7, §8

MB435 (Melanoma) = assay: SRB assay, MB435; type: cell-based, human; conditions: 48 h
Description: as §1, §2, §3, §4, §5, §6, §7, §8

DU145 (Prostate) = assay: SRB assay, DU145; type: cell-based, human; conditions: for TGI / GI50: DU145, SRB, 48 h; for CC50 / GI50: Homo sapiens; for CC50: DU-145, 48 h, read-out: LC50; for GI50: DU-145
Description: as §1, §2, §3, §4, §5, §6, §7, §8

OVCAR3 (Ovary) = assay: SRB assay, OVCAR3; type: cell-based, human
Description: as §1, §2, §3, §4, §5, §6, §7, §8

[1] = target: Na+/K+-ATPase (Adenosine 5′-Triphosphatase isolated from porcine cerebral cortex); assay: Na+/K+-ATPase inhibitory activity, colorimetric Adenosine 5'-Triphosphatase Enzymatic Assay; type: biochemical; conditions: read-out: Na+K+ ATPase inhibitory activity IC50
Description: The inhibitory effect of a compound of the invention on ATPase activity was assessed in vitro using the colorimetric Adenosine 5′-Triphosphatase Enzymatic Assay of Sigma (St. Louis, Mo.) according to the manufacturer's instructions. This assay utilizes Adenosine 5′-Triphosphatase isolated from porcine cerebral cortex. Each reaction was performed in a final volume of 250 μl using 0.5 units/ml enzyme in the presence of different inhibitors. […] IC50 values were determined using the Origin® program software (OriginLab, Northampton, Mass.).

ADRRES (Ovary) = assay: SRB assay, ADRRES (multidrug resistant NCI-ADR-RES); type: cell-based, human; conditions: 48 h; for TGI / GI50: ADRRES, SRB; for CC50 / GI50: Homo sapiens, NCI/ADR-RES; for CC50: read-out: LC50
Description: NCI-ADR-RES cells have been classified as ovarian cancer cells by the National Cancer Institute.
as §1, §2, §3, §4, §5, §6, §7, §8
Table 4 also presents results with Compound Nos. 120, 12, 61, 1, and 56 in a well characterized drug resistant cell line, NCI-ADR-RES, that expresses high levels of MDR1 and P-glycoprotein.

SF268 (CNS) = assay: SRB assay, SF268; type: cell-based; conditions: Homo sapiens; for CC50: read-out: LC50; for IC (TGI): read-out: TGI
Description: as §1, §2, §3, §4, §5, §6, §7, §8

SKMEL28 (Melanoma) = assay: SRB assay, SKMEL28; type: cell-based, human; conditions: for CC50 / GI50: Homo sapiens; for CC50: SK-MEL-28, 48 h, read-out: LC50; for GI50: SK-MEL-28; for GI50 / TGI: SKMEL28, SRB, 48 h
Description: as §1, §2, §3, §4, §5, §6, §7, §8

HCT116 (Colon) = assay: SRB assay, HCT116; type: cell-based; conditions: Homo sapiens; for CC50: HCT-116, 48 h, read-out: LC50; for GI50 / IC (TGI): HCT-116, HCT116, SRB, 48 h
Description: as §1, §2, §3, §4, §5, §6, §7, §8

Compound	CC50 (PCJ (Prostate))	GI50 (PCJ (Prostate))	IC (TGI) (PCJ (Prostate))	TGI (CAKJ1 (Renal))	CC50 (CAKJ1 (Renal))	GI50 (CAKJ1 (Renal))	TGI (A549 (Lung))	CC50 (A549 (Lung))	GI50 (A549 (Lung))	TGI (DU145 (Prostate))	CC50 (DU145 (Prostate))	GI50 (DU145 (Prostate))	TGI (ADRRES (Ovary))	CC50 (ADRRES (Ovary))	GI50 (ADRRES (Ovary))	CC50 (SF268 (CNS); SF-268, 48 h)	CC50 (SKMEL28 (Melanoma))	GI50 (SKMEL28 (Melanoma))	TGI (SKMEL28 (Melanoma))	CC50 (HCT116 (Colon))	also measured
C[C@H]1O[C@@H](O[C@H]2[C@@H](O)C[C@H](O[C@H]3[C@@H](O)C[C@H](O[C@H]4CC[C@@]5(C)[C@H](CC[C@@H]6[C@@H]5C[C@@H](O)[C@]5(C)[C@@H](C7=CC(=O)OC7)CC[C@]65O)C4)O[C@@H]3C)O[C@@H]2C)C[C@H](O)[C@@H]1O [Digoxin, reference compound]	300 nM	< 80 nM	100 nM	70 nM	200 nM	< 10 nM	60 nM	1140 nM	< 1 nM	70 nM	360 nM	30 nM	100 nM	750 nM	40 nM	100 nM	> 100000 nM	80 nM	6500 nM	> 50000 nM	CC50 (OVCAR5 (Ovary); Homo sapiens, OVCAR-5, 48 h, read-out: LC50): 840 nM; GI50 (OVCAR5 (Ovary); Homo sapiens, OVCAR-5, OVCAR5, SRB, 48 h): < 10 nM; TGI (OVCAR5 (Ovary); OVCAR5, SRB, 48 h): 430 nM; TGI (ERVK (Lung); ERVK, SRB): 90 nM; CC50 (ERVK (Lung); Homo sapiens, read-out: LC50): 680 nM; GI50 (ERVK (Lung); Homo sapiens, ERVK, SRB): < 10 nM; CC50 (MB435 (Melanoma); Homo sapiens, read-out: LC50): 7690 nM; GI50 (MB435 (Melanoma); Homo sapiens, MB435, SRB): 70 nM; TGI (MB435 (Melanoma); MB435, SRB): 530 nM; CC50 (OVCAR3 (Ovary); Homo sapiens, OVCAR-3, 48 h, read-out: LC50): 22200 nM; GI50 (OVCAR3 (Ovary); Homo sapiens, OVCAR-3, OVCAR3, SRB, 48 h): < 10 nM; TGI (OVCAR3 (Ovary); OVCAR3, SRB, 48 h): 2650 nM; IC50 [1]: 204 nM; GI50 (SF268 (CNS); SF-268, 48 h): < 80 nM; IC (TGI) (SF268 (CNS); SF-268, 48 h): < 80 nM; GI50 (HCT116 (Colon)): < 80 nM; IC (TGI) (HCT116 (Colon)): 700 nM
CC(=O)O[C@H]1C(=O)[C@@]2(C)[C@H]([C@H](OC(=O)c3ccccc3)[C@]3(O)C[C@H](OC(=O)[C@H](O)[C@@H](NC(=O)c4ccccc4)c4ccccc4)C(C)=C1C3(C)C)[C@]1(OC(C)=O)CO[C@@H]1C[C@@H]2O [Paclitaxel, reference compound]	> 10000 nM	< 100 nM	> 10000 nM	4969 nM	11600 nM	< 1 nM	6138.4 nM	15300 nM	< 1 nM	8.6 nM	143 nM	< 1 nM	5803.4 nM	10600 nM	1050 nM	> 10000 nM	> 10000 nM	2300 nM	>10000 nM	> 10000 nM	GI50 (SF268 (CNS); SF-268, SF268, SRB, 48 h, read-out: GI50): < 100 nM; IC (TGI) (SF268 (CNS); SF-268, SF268, SRB, 48 h): 1930 nM; GI50 (HCT116 (Colon)): < 100 nM; IC (TGI) (HCT116 (Colon)): 2240 nM

— patent publication US20120238488A1, “COMPOUNDS AND METHODS FOR TREATING NEOPLASIA” (priority 2009, published 2012)
